Results as given in patent US20020182239A1, “Composition and method for inhibiting polar capsule discharge and protecting a subject from nematocyst sting” (priority 2002, published 2002).
Like-named read-outs stand apart in the source and are kept apart here.

Experiments:
[1] = system: isolated nematocyst capsules; details: 50 mM CaCl2; cited from earlier work
[2] = system: jellyfish Rhopilema nomadica nematocysts

SMILES	discharge of isolated nematocyst capsules [1]	nematocysts in skin treated with ointment base alone relative to skin treated with formalin ([2]; 0.1% formalin)	decrease in nematocysts skin penetration ([2]; 0.1% formalin in ointment base vs ointment base alone)	nematocyst discharge and skin penetration ([2]; formalin concentration 0.01%)	nematocyst discharge and skin penetration ([2]; formalin concentration 0.05%)	average number of nematocysts counted on a skin sample ([2]; ointment base containing 0.1% formalin, human skin sections, tentacles 10 seconds)
[Ca+2].[Cl-].[Cl-] [CaCl2]	do not discharge					
C=O [formalin]		more than 5 times	over 80%	reduces nematocyst discharge and skin penetration	reduces nematocyst discharge and skin penetration	5+/−4 nematocysts
